From patent US5130425A, “Spiro-lactams and analogs thereof useful as aldose reductase inhibitors” (American Home Products Corporation, priority 1991, dated 1992)

What was measured:
aldose reductase = target: T1, aldose reductase (Bos taurus, UniProt P16116); assay: In vitro aldose reductase inhibition (modified procedure of Hayman and Kinoshita, enzyme from bovine lens); assay type: biochemical
T1 construct: preparation of the enzyme from bovine lens; from tissue; host or cells: bovine lens
Description: Only two minor reagent changes were made: (a) the rinsing mixture was an aqueous 5% (w/v) trichloroacetic acid solution and (b) the stock solution was prepared by dissolving 25 mg of dulcitol in 100 mL of an aqueous trichloroacetic acid solution. [N.B.: For each experiment the average value found in the tissue from rats fed the glucose diet was subtracted from the individual values found in the corresponding tissue in galactose-fed rats to obtain the amount of polyol accumulated.] […] In the present case the procedure of Hayman and Kinoshita was modified in that the final chromatography step was omitted in the preparation of the enzyme from bovine lens.

[1] = system: galactitol (dulcitol) accumulation in tissues of galactosemic rats; assay: Galactosemic rat test: lowering of galactitol (dulcitol) accumulation in lens, sciatic nerve and diaphragm; assay type: in vivo, rat (Sprague-Dawley, male); design: key to % Lowering Galactitol Accumulation In vivo, L: NS: not significant; details: 4 days, vs untreated galactosemic rats; for % Lowering Galactitol Accumulation In vivo, D: diaphragm; for % Lowering Galactitol Accumulation In vivo, L: lens
Source text: The aldose reductase inhibiting property of the compounds of this invention and the utilization of the compounds in preventing, diminishing and alleviating diabetic complications are demonstrable in experiments using galactosemic rats, see Dvornik et al., Science, 182, 1146 (1973). Such experiments are exemplified hereinbelow after the listing of the following general comments pertaining to these experiments:
(a) Four or more groups of six male rats, 50-70 g, Sprague-Dawley strain, were used. The first group, the control group, was fed a mixture of laboratory chow (rodent Laboratory Chow, Purina) and glucose at 20% (w/w %) concentration. An untreated galactosemic group was fed a similar diet in which galactose was substituted for glucose. The third group was fed a diet prepared by mixing a given amount of the test compound with the galactose containing diet. The concentration of galactose in the diet of the treated groups was the same as that for the untreated galactosemic group.
(b) After four days, the animals were killed by euthanization. Both the lens and sciatic nerve were removed, weighed and stored frozen for polyol determination.
(c) The polyol determination was performed by a modification of the procedure of M. Kraml and L. Cosyns, Clin. Biochem., 2,373 (1969). Only two minor reagent changes were made: (a) the rinsing mixture was an aqueous 5% (w/v) trichloroacetic acid solution and (b) the stock solution was prepared by dissolving 25 mg of dulcitol in 100 mL of an aqueous trichloroacetic acid solution. [N.B.: For each experiment the average value found in the tissue from rats fed the glucose diet was subtracted from the individual values found in the corresponding tissue in galactose-fed rats to obtain the amount of polyol accumulated.] The aldose reductase inhibiting effects of the compounds of formula (I) were also tested by employing an in vitro testing procedure similar to that described by S. Hayman and J. H. Kinoshita, J. Biol. Chem., 240, 877 (1965). In the present case the procedure of Hayman and Kinoshita was modified in that the final chromatography step was omitted in the preparation of the enzyme from bovine lens.
The figures under L, N, and D represent the percentage decrease of dulcitol accumulation in the tissues of the lens, sciatic nerve, and diaphragm, respectively, for treated rats as compared to untreated rats.

[2] = column headed 10^5 (concentration unit not given)
[3] = column headed 10^-6 (concentration unit not given)
[4] = column headed 10^-7 (concentration unit not given)

Row | Structure (SMILES) | % Inhibition In Vitro (aldose reductase; [2]) | % Inhibition In Vitro (aldose reductase; [3]) | % Inhibition In Vitro (aldose reductase; [4]) | % Lowering Galactitol Accumulation In vivo, D ([1]; 28 mg/kg/day in diet) | % Lowering Galactitol Accumulation In vivo, L ([1]; 28 mg/kg/day in diet) | % Lowering Galactitol Accumulation In vivo, D ([1]; 11 mg/kg/day in diet) | % Lowering Galactitol Accumulation In vivo, D ([1]; 49 mg/kg/day in diet) | % Lowering Galactitol Accumulation In vivo, L ([1]; 11 mg/kg/day in diet) | % Lowering Galactitol Accumulation In vivo, L ([1]; 49 mg/kg/day in diet)
1 | CN1C(=O)c2ccc(Br)cc2C2(CC(=O)N2)C1=O (stereo not drawn) [Br CH3, 6'-bromo-2'-methylspiro[azetidine-2,4'(1'H)-isoquinoline]-1',3',4(2'H)-trione] | 96% | 77% | 16% | 86% | 36% | – | – | – | –
2 | CN1C(=O)c2ccc(Cl)cc2C2(CC(=O)N2)C1=O (stereo not drawn) [Cl CH3, 6'-chloro-2'-methylspiro[azetidine-2,4'(1'H)-isoquinoline]-1',3',4(2'H)-trione] | 84% | 75% | 22% | – | – | 70% | 82% | NS | 66%
